Assay results as given in patent publication US10745384B2, “Indazole derivatives as αv integrin antagonists” (BRISTOL-MYERS SQUIBB COMPANY, priority 2016, dated 2020).
Counter-ions that a name gives are not always drawn.

Target: T1, human αVβ6 (Homo sapiens, UniProt P06756+P18564)
T1 construct: purchased R & D systems 3817-AV
Experiment: human αVβ6 HTRF binding assay
Conditions: recombinant human αVβ6 integrin, FITC-conjugated fibronectin
Protocol: All binding assays used the HTRF (homogeneous time resolved fluorescence) technology from Cisbio International, therefore all assays are described as HTRF binding assays. The assay results for the Examples are listed above together with the characterization data. The HTRF binding assays are established for the following integrins: human αVβ6, human αVβ1, human αVβ3, human αVβ5, and human αVβ8. All assays used the following assay buffer: 20 mM Tris, pH 7.4, 1 mM MgCl2, 1 mM MnCl2, 0.01% Tween 20, and 0.01% BSA. Alternatively, a SPA-based assay was used for evaluation of receptor binding.
The following describes the components and a representative procedure for the human αVβ6 HTRF binding assay: Recombinant human αVβ6 Integrin (R & D systems, 3817-AV) was biotinylated. Biotinylated human αVβ6 Integrin was added to assay vessel at a final concentration of 1.25 nM. FITC-conjugated fibronectin (Cytoskeleton, FNR02) was then added at the final concentration of 5 nM. The mixture was centrifuged at 600 rpm for three minutes using Thermo Fisher Heraeus Multifuge X3 centrifuge and then incubated at room temperature for an hour. Streptavidin Terbium (Cisbio international 610STLB) was then added at the final concentration of 0.625 nM. The resulting mixture was centrifuged at 600 rpm for three minutes using Thermo Fisher Heraeus Multifuge X3 centrifuge and then incubated at room temperature overnight in dark before reading HTRF signals. […]

T1 sequence (P06756 31-992 limits assumed): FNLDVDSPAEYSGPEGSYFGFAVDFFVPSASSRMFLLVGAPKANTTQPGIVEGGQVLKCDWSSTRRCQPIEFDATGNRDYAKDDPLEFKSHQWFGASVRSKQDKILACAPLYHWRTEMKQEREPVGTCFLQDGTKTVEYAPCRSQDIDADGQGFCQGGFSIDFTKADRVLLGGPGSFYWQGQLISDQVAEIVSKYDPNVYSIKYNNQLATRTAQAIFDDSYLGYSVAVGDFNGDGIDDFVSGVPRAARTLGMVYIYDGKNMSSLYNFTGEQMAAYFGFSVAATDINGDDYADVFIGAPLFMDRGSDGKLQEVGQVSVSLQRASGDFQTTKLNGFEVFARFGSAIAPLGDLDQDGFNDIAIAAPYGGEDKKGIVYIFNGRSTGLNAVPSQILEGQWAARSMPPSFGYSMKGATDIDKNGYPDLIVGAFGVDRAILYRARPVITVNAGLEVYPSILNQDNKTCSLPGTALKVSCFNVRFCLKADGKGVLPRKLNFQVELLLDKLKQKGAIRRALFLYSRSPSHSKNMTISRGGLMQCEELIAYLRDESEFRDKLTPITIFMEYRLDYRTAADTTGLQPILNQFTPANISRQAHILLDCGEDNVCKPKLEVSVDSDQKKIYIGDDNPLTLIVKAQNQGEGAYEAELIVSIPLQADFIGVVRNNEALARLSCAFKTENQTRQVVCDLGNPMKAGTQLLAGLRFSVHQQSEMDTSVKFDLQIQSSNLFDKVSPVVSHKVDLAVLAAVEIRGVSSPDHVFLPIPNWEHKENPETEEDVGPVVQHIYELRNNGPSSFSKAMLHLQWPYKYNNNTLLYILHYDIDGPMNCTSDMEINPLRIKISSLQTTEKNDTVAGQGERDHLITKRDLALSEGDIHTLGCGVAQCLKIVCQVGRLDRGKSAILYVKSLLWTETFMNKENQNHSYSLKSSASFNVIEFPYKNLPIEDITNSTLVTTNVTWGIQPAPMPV
T1 sequence (P18564 22-707 limits assumed): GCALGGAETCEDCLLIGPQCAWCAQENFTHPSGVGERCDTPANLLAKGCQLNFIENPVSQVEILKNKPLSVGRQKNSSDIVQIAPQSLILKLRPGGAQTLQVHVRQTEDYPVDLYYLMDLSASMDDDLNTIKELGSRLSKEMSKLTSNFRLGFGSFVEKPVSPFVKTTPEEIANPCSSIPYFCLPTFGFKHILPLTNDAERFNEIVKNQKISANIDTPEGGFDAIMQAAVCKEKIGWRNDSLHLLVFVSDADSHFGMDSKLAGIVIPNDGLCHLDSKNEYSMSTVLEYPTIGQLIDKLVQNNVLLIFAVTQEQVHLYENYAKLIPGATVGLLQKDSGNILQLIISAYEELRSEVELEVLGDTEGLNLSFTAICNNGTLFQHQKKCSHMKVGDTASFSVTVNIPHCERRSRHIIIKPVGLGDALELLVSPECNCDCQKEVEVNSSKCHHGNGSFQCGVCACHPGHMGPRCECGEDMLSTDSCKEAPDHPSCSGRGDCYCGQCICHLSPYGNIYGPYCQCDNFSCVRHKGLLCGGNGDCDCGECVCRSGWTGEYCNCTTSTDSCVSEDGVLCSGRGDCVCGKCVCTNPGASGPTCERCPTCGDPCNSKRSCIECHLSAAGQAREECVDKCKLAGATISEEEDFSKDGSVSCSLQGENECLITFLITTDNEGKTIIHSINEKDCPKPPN

Row | Structure (SMILES) | IC50
1 | O=C(O)CC(c1cccc(N2CCOCC2)c1)n1ncc2cc(OCCc3ccc4c(n3)NCCC4)ccc21 (centres unmarked) [Example 58, 3-(3-Morpholinophenyl)-3-(5-(2-(5,6,7,8-tetrahydro-1,8-naphthyridin-2-yl)ethoxy)-1H-indazol-1-yl)propanoic acid, TFA] | 0.0017 µM
2 | O=C(O)CC(c1ccccn1)n1ncc2cc(OCCc3ccc4c(n3)NCCC4)ccc21 (centres unmarked) [Example 61, 3-(Pyridin-2-yl)-3-(5-(2-(5,6,7,8-tetrahydro-1,8-naphthyridin-2-yl)ethoxy)-1H-indazol-1-yl)propanoic acid, TFA] | 0.08 µM
3 | O=C(O)CC(c1cccc(N2CCCC2=O)c1)n1ncc2cc(OCCc3ccc4c(n3)NCCC4)ccc21 (centres unmarked) [Example 62, 3-(3-(2-Oxopyrrolidin-1-yl)phenyl)-3-(5-(2-(5,6,7,8-tetrahydro-1,8-naphthyridin-2-yl)ethoxy)-1H-indazol-1-yl)propanoic acid, TFA] | 0.037 µM
4 | CCCn1cc(C(CC(=O)O)n2ncc3cc(OCCc4ccc5c(n4)NCCC5)ccc32)cn1 (centres unmarked) [Example 63, 3-(1-Propylpyrazol-4-yl)-3-(5-(2-(5,6,7,8-tetrahydro-1,8-naphthyridin-2-yl)ethoxy)-1H-indazol-1-yl)propanoic acid, TFA] | 0.055 µM
5 | COc1ccc([C@H](CC(=O)O)n2cc3cc(CCc4ccc5c(n4)NCCC5)ccc3n2)cn1 [Example 64, (S)-3-(6-Methoxypyridin-3-yl)-3-(5-(2-(5,6,7,8-tetrahydro-1,8-naphthyridin-2-yl)ethyl)-2H-indazol-2-yl)propanoic acid] | 0.019 µM
6 | COc1ccc([C@H](CC(=O)O)n2cc3cc(CCCc4ccc5c(n4)NCCC5)ccc3n2)cn1 [Example 67, (S)-3-(6-Methoxypyridin-3-yl)-3-(5-(3-(5,6,7,8-tetrahydro-1,8-naphthyridin-2-yl)propyl)-2H-indazol-2-yl)propanoic acid] | 0.74 µM
7 | Cc1cc(C)n(-c2cccc(C(CC(=O)O)n3ncc4cc(OCCc5ccc6c(n5)NCCC6)ccc43)c2)n1 (centres unmarked) [Example 68, 3-(3-(3,5-Dimethylpyrazol-1-yl)phenyl)-3-(5-(2-(5,6,7,8-tetrahydro-1,8-naphthyridin-2-yl)ethoxy)-1H-indazol-1-yl)propanoic acid, TFA] | 0.0015 µM
8 | O=C(O)CC(Cc1ccc(OCc2ccccc2)cc1)n1ncc2cc(OCCc3ccc4c(n3)NCCC4)ccc21 (centres unmarked) [Example 69, 4-(4-(Benzyloxy)phenyl)-3-(5-(2-(5,6,7,8-tetrahydro-1,8-naphthyridin-2-yl)ethoxy)-1H-indazol-1-yl)butanoic acid, TFA] | 0.4 µM
9 | COc1ccc(C(CC(=O)O)n2nc(C)c3cc(OCCc4ccc5c(n4)NCCC5)ccc32)cn1 (centres unmarked) [Example 70, 3-(6-Methoxypyridin-3-yl)-3-(3-methyl-5-(2-(5,6,7,8-tetrahydro-1,8-naphthyridin-2-yl)ethoxy)-1H-indazol-1-yl)propanoic acid] | 0.953 µM
10 | Cn1ccc(C(CC(=O)O)n2ncc3cc(OCCc4ccc5c(n4)NCCC5)ccc32)cc1=O (centres unmarked) [Example 71, 3-(1-Methyl-2-oxo-1,2-dihydropyridin-4-yl)-3-(5-(2-(5,6,7,8-tetrahydro-1,8-naphthyridin-2-yl)ethoxy)-1H-indazol-1-yl)propanoic acid, TFA] | 0.064 µM
11 | O=C(O)C(CCc1ccccc1)Cn1ncc2cc(OCCc3ccc4c(n3)NCCC4)ccc21 (centres unmarked) [Example 73, 4-Phenyl-2-((5-(2-(5,6,7,8-tetrahydro-1,8-naphthyridin-2-yl)ethoxy)-1H-indazol-1-yl)methyl)butanoic acid] | 1.8 µM
12 | CC(C)(C)OC(=O)N1CCC(C(CC(=O)O)n2ncc3cc(OCCc4ccc5c(n4)NCCC5)ccc32)CC1 (centres unmarked) [Example 74, 3-(1-(tert-Butoxycarbonyl)piperidin-4-yl)-3-(5-(2-(5,6,7,8-tetrahydro-1,8-naphthyridin-2-yl)ethoxy)-1H-indazol-1-yl)propanoic acid] | 0.26 µM
13 | COc1cnc(C(CC(=O)O)n2ncc3cc(OCCc4ccc5c(n4)NCCC5)ccc32)cn1 (centres unmarked) [Example 79, 3-(5-Methoxypyrazin-2-yl)-3-(5-(2-(5,6,7,8-tetrahydro-1,8-naphthyridin-2-yl)ethoxy)-1H-indazol-1-yl)propanoic acid, TFA] | 0.033 µM
14 | O=C(O)C[C@@H](c1cnc2ccccc2c1)n1cc2ccc(CCc3ccc4c(n3)NCCC4)cc2n1 [Example 81, (S)-3-(Quinolin-3-yl)-3-(6-(2-(5,6,7,8-tetrahydro-1,8-naphthyridin-2-yl)ethyl)-2H-indazol-2-yl)propanoic acid] | 0.0032 µM
15 | Cc1nc2c(cc1Cc1ccc3cn([C@@H](CC(=O)O)c4cnc5ccccc5c4)nc3c1)CCCN2 [Example 82, (S)-3-(6-((2-Methyl-5,6,7,8-tetrahydro-1,8-naphthyridin-3-yl)methyl)-2H-indazol-2-yl)-3-(quinolin-3-yl)propanoic acid] | 0.15 µM
16 | O=C(O)C[C@@H](c1cccc(N2CCCC2=O)c1)n1ncc2cc(OCCc3ccc4c(n3)NCCC4)ccc21 [Example 84, (S)-3-(3-(2-Oxopyrrolidin-1-yl)phenyl)-3-(5-(2-(5,6,7,8-tetrahydro-1,8-naphthyridin-2-yl)ethoxy)-1H-indazol-1-yl)propanoic acid, TFA] | 0.12 µM
17 | O=C(O)C[C@H](c1cccc(N2CCCC2=O)c1)n1ncc2cc(OCCc3ccc4c(n3)NCCC4)ccc21 [Example 85, (R)-3-(3-(2-Oxopyrrolidin-1-yl)phenyl)-3-(5-(2-(5,6,7,8-tetrahydro-1,8-naphthyridin-2-yl)ethoxy)-1H-indazol-1-yl)propanoic acid, TFA] | 0.0025 µM
18 | COc1ncc(C(CC(=O)O)n2ncc3cc(OCCc4ccc5c(n4)NCCC5)ccc32)cc1F (centres unmarked) [Example 86, 3-(5-Fluoro-6-methoxypyridin-3-yl)-3-(5-(2-(5,6,7,8-tetrahydro-1,8-naphthyridin-2-yl)ethoxy)-1H-indazol-1-yl)propanoic acid, TFA] | 0.0078 µM
19 | O=C(O)CC(c1ccc2c(n1)NCCO2)n1ncc2cc(OCCc3ccc4c(n3)NCCC4)ccc21 (centres unmarked) [Example 91, 3-(3,4-Dihydro-2H-pyrido[3,2-b][1,4]oxazin-6-yl)-3-(5-(2-(5,6,7,8-tetrahydro-1,8-naphthyridin-2-yl)ethoxy)-1H-indazol-1-yl)propanoic acid, 2 TFA] | 0.031 µM
20 | O=C(O)CC(c1ccc2cnccc2c1)n1ncc2cc(OCCc3ccc4c(n3)NCCC4)ccc21 (centres unmarked) [Example 94, 3-(Isoquinolin-6-yl)-3-(5-(2-(5,6,7,8-tetrahydro-1,8-naphthyridin-2-yl)ethoxy)-1H-indazol-1-yl) propanoic acid, 2 TFA] | 0.013 µM

Second part, the compound after the results:

Row | IC50 | Structure (SMILES)
21 | 0.0012 µM | O=C(O)CC(c1cccc(-n2cccc2)c1)n1ncc2cc(OCCc3ccc4c(n3)NCCC4)ccc21 (centres unmarked) [Example 59, 3-(3-(1H-Pyrrol-1-yl)phenyl)-3-(5-(2-(5,6,7,8-tetrahydro-1,8-naphthyridin-2-yl)ethoxy)-1H-indazol-1-yl)propanoic acid, TFA]
22 | 0.0051 µM | CN(C)Cc1cccc(C(CC(=O)O)n2ncc3cc(OCCc4ccc5c(n4)NCCC5)ccc32)c1 (centres unmarked) [Example 60, 3-(3-((Dimethylamino)methyl)phenyl)-3-(5-(2-(5,6,7,8-tetrahydro-1,8-naphthyridin-2-yl)ethoxy)-1H-indazol-1-yl)propanoic acid, TFA]
23 | 0.023 µM | O=C(O)CC(c1ccncc1)n1ncc2cc(OCCc3ccc4c(n3)NCCC4)ccc21 (centres unmarked) [Example 75, 3-(Pyridin-4-yl)-3-(5-(2-(5,6,7,8-tetrahydro-1,8-naphthyridin-2-yl)ethoxy)-1H-indazol-1-yl)propanoic acid, 2 TFA]
24 | 3.4 µM | O=C(O)CC1(n2ncc3cc(OCCc4ccc5c(n4)NCCC5)ccc32)CC1 [Example 76, 2-(1-(5-(2-(5,6,7,8-tetrahydro-1,8-naphthyridin-2-yl)elhoxy)-1H-indazol-1-yl)cyclopropyl)acetic acid, TFA]
25 | 0.804 µM | O=C(O)CC(Cc1ccc(F)cc1)n1ncc2cc(OCCc3ccc4c(n3)NCCC4)ccc21 (centres unmarked) [Example 78, 4-(4-Fluorophenyl)-3-(5-(2-(5,6,7,8-tetrahydro-1,8-naphthyridin-2-yl)ethoxy)-1H-indazol-1-yl)butanoic acid, TFA]
26 | 0.013 µM | O=C(O)CC(c1ccc2nccnc2c1)n1ncc2cc(OCCc3ccc4c(n3)NCCC4)ccc21 (centres unmarked) [Example 80, 3-(Quinoxalin-6-yl)-3-(5-(2-(5,6,7,8-tetrahydro-1,8-naphthyridin-2-yl)ethoxy)-1H-indazol-1-yl)propanoic acid, TFA]
27 | 0.02 µM | O=C(O)C[C@@H](c1cnc2ccccc2c1)n1cc2ccc(CCCC3CCc4cccnc4N3)cc2n1 (stereo partly drawn) [Example 88, (3S)-3-(Quinolin-3-yl)-3-(6-(3-(1,2,3,4-tetrahydro-1,8-naphthyridin-2-yl)propyl)-2H-indazol-2-yl)propanoic acid]
28 | 0.0095 µM | Cc1cc(C(CC(=O)O)n2ncc3cc(OCCc4ccc5c(n4)NCCC5)ccc32)cnc1OCC(C)(C)O (centres unmarked) [Example 90, 3-(6-(2-Hydroxy-2-methylpropoxy)-5-methylpyridin-3-yl)-3-(5-(2-(5,6,7,8-tetrahydro-1,8-naphthyridin-2-yl)ethoxy)-1H-indazol-1-yl)propanoic acid, TFA]
29 | 0.0081 µM | O=C(O)CC(c1ccnc(N2CCCC2=O)c1)n1ncc2cc(OCCc3ccc4c(n3)NCCC4)ccc21 (centres unmarked) [Example 93, 3-(2-(2-Oxopyrrolidin-1-yl)pyridin-4-yl)-3-(5-(2-(5,6,7,8-tetrahydro-1,8-naphthyridin-2-yl)ethoxy)-1H-indazol-1-yl)propanoic acid, TFA]
